Here are results for two compounds from paper PMC12372887, “Mechanism and cellular actions of the potent AMPK inhibitor BAY-3827” (Science Advances, 2025).

What all share (assay): Kinase panel (140 human kinases)
What all share (format): biochemical

The target of one assay is ERK2 (Homo sapiens, UniProt P28482). In outline:
(§1)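 Radioactive [γ-^33P]ATP filter-binding assay, run in duplicate; compounds tested at 0.1 μM and at 1 μM (BAY-3827). ATP at 5, 20 or 50 μM, chosen at or below each enzyme's Km for ATP. Values are mean remaining kinase activity (%) with SD.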

For another assay, the target named is T1, IKKb (Homo sapiens, UniProt O14920).
T1 sequence (O14920 1-756): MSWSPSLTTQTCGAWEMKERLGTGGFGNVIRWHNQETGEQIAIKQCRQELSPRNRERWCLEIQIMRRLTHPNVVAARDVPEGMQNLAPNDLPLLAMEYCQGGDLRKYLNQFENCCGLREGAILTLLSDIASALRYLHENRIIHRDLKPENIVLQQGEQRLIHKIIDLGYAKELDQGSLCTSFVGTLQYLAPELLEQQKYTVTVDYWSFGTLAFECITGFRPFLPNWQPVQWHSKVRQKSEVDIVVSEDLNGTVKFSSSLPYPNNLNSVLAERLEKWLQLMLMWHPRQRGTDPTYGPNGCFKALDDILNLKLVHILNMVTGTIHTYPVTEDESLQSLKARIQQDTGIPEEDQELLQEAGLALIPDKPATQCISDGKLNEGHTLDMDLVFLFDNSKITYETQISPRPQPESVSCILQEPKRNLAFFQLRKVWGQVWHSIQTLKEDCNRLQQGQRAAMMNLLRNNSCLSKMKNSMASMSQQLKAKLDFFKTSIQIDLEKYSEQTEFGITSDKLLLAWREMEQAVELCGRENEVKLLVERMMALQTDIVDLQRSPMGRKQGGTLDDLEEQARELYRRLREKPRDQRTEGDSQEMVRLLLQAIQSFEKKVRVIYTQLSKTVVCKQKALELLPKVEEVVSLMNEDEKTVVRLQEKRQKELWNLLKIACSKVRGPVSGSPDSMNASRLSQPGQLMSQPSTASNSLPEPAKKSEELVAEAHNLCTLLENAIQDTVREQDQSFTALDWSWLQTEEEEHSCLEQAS
In outline: as §1

For another assay, the target named is CHK1 (Homo sapiens, UniProt O14757). In outline: as §1
A further assay addresses p38b MAPK (Homo sapiens, UniProt Q15759). In outline: as §1
The target of a further assay is T2, BRSK2 (Homo sapiens, UniProt Q8IWQ3).
T2 sequence (Q8IWQ3 1-736): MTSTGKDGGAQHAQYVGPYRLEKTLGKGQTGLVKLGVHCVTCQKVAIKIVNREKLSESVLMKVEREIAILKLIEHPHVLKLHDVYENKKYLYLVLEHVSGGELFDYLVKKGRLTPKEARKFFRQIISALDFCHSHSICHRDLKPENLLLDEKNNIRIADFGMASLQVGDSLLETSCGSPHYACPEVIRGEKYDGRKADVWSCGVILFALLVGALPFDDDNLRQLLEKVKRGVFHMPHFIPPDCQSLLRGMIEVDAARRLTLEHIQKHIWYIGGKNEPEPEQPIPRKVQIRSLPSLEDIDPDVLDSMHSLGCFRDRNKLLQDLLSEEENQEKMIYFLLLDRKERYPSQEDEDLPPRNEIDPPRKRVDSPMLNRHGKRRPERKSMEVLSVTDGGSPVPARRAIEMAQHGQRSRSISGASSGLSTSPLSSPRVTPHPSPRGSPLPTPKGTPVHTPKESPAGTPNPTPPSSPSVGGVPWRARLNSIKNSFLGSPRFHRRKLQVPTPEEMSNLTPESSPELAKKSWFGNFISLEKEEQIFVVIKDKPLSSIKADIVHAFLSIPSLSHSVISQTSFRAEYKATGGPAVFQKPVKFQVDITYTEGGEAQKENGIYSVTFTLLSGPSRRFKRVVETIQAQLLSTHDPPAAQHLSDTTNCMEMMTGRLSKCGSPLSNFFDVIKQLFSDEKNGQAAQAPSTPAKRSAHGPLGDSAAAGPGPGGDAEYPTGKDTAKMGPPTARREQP
In outline:
as §1

The next assay has as its target EPH-A2 (Homo sapiens, UniProt P29317). In outline: as §1
Another assay concerns the target GCK (Homo sapiens, UniProt Q12851). In outline:
as §1

Another assay concerns the target PIM2 (Homo sapiens, UniProt Q9P1W9). A digest of the protocol: as §1
In a further assay the target is OSR1 (Homo sapiens, UniProt O95747). In outline:
as §1

The next assay deals with TTK (Homo sapiens, UniProt P33981). A digest of the protocol:
as §1

Another assay addresses PLK1 (Homo sapiens, UniProt P53350). A digest of the protocol:
as §1

A further assay deals with STK33 (Homo sapiens, UniProt Q9BYT3). A digest of the protocol:
as §1

In another assay the target is DDR2 (Homo sapiens, UniProt Q16832). In outline: as §1
In a further assay the target is JNK1 (Homo sapiens, UniProt P45983). A digest of the protocol:
as §1

The target of another assay is PKBa (Homo sapiens, UniProt P31749). In outline: as §1
For another assay, the target named is YES1 (Homo sapiens, UniProt P07947). In outline:
as §1

For another assay, the target named is ROCK 2 (Homo sapiens, UniProt O75116). A digest of the protocol: as §1
A further assay deals with ZAP70 (Homo sapiens, UniProt P43403). In outline:
as §1

In a further assay the target is EPH-B4 (Homo sapiens, UniProt P54760). A digest of the protocol: as §1
A further assay concerns the target EPH-B3 (Homo sapiens, UniProt P54753). A digest of the protocol:
as §1

The target of a further assay is CAMKKb (Homo sapiens, UniProt Q96RR4). In outline:
as §1

[1] abbreviates: 1 μM, cross-referenced with screen data of ref 37, read-out: activity remaining after treatment.

YES1, sequence (P07947 whole entry): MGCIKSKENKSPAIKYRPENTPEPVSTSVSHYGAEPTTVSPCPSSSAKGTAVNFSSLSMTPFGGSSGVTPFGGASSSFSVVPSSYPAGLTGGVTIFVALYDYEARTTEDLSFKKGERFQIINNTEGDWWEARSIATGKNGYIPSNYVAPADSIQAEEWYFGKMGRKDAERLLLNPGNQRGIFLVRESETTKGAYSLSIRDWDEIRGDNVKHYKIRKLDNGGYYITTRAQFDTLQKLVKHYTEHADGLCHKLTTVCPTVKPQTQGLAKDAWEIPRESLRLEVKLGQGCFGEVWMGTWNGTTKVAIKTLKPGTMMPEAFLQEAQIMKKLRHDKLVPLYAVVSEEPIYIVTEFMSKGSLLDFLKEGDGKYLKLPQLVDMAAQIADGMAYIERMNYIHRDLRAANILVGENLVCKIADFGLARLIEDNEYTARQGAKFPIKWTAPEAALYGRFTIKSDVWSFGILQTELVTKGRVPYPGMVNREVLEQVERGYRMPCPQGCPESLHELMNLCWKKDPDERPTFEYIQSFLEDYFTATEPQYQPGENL
PIM2, sequence (Q9P1W9 whole entry): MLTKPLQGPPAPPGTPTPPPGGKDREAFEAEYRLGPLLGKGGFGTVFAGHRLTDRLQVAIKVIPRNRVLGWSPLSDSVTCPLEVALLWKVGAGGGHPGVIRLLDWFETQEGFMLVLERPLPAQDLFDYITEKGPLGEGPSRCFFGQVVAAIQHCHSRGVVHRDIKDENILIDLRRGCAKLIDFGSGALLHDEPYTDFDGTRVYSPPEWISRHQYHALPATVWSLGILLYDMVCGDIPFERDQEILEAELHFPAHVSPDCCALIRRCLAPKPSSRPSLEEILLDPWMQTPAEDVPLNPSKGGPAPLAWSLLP
ERK2, sequence (P28482 whole entry): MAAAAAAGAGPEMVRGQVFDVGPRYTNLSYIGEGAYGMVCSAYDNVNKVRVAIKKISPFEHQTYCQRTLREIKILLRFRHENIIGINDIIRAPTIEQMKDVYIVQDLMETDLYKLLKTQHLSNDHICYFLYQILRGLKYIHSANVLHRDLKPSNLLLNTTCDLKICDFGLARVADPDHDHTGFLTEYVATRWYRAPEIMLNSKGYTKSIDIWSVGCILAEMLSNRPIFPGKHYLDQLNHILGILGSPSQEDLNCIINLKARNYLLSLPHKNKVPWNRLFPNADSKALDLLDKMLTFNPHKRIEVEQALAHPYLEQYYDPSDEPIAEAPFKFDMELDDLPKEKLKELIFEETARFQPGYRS
p38b MAPK, sequence (Q15759 whole entry): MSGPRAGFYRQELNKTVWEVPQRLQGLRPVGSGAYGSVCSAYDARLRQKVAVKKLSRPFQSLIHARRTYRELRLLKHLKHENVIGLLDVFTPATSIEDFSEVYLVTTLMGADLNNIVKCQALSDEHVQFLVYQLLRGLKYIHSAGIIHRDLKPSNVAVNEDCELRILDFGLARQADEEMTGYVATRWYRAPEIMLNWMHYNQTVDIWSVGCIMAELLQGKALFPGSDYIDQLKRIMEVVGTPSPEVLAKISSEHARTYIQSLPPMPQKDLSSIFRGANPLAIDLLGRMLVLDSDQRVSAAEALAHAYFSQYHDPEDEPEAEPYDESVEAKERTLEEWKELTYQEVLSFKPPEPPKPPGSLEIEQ
EPH-B3, sequence (P54753 34-998): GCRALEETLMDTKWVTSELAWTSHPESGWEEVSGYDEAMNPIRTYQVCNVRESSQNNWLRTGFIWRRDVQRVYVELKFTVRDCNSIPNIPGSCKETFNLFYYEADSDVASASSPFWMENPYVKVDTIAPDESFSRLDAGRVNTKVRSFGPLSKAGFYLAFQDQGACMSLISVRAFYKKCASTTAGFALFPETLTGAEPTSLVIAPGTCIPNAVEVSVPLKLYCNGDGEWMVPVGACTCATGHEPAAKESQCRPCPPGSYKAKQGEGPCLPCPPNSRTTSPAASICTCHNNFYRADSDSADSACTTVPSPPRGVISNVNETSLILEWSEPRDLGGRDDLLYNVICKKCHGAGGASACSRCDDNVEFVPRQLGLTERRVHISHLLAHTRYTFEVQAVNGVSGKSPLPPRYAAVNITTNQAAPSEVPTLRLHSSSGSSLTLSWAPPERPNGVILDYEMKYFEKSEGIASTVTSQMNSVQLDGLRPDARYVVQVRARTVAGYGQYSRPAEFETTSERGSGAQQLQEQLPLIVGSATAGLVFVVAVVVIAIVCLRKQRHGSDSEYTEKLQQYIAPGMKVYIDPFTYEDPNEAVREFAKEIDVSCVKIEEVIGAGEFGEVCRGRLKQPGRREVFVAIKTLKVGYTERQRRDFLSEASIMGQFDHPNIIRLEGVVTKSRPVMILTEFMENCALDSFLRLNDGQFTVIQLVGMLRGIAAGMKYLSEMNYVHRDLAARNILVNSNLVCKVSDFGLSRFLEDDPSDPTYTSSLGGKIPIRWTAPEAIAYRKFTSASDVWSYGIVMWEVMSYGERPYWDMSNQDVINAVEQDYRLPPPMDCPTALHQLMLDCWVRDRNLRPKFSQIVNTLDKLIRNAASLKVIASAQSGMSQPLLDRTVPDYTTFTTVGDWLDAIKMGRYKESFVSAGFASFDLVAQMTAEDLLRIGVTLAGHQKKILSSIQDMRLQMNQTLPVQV
DDR2, sequence (Q16832 22-855): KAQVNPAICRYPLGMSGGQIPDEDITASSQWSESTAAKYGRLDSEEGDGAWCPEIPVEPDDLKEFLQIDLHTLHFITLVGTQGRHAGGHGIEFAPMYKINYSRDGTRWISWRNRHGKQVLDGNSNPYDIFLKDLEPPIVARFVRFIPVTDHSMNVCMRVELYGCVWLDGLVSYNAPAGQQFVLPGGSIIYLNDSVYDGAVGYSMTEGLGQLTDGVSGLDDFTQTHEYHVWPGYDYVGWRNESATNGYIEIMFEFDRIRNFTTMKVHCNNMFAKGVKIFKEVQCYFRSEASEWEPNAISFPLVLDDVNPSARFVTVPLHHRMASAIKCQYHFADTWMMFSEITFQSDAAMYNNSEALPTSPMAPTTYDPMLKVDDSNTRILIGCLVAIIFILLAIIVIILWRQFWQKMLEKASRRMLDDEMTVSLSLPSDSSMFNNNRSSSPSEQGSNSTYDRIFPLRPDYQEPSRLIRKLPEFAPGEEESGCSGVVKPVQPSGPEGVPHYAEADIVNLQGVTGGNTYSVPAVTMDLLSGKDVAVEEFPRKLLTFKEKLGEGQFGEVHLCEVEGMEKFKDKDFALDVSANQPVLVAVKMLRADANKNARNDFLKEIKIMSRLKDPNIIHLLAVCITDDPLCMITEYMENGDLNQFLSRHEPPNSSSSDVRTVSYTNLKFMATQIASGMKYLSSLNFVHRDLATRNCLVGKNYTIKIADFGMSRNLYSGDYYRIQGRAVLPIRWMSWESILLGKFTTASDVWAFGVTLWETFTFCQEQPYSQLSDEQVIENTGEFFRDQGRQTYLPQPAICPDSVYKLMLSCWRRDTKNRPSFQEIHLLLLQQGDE
ROCK 2, sequence (O75116 whole entry): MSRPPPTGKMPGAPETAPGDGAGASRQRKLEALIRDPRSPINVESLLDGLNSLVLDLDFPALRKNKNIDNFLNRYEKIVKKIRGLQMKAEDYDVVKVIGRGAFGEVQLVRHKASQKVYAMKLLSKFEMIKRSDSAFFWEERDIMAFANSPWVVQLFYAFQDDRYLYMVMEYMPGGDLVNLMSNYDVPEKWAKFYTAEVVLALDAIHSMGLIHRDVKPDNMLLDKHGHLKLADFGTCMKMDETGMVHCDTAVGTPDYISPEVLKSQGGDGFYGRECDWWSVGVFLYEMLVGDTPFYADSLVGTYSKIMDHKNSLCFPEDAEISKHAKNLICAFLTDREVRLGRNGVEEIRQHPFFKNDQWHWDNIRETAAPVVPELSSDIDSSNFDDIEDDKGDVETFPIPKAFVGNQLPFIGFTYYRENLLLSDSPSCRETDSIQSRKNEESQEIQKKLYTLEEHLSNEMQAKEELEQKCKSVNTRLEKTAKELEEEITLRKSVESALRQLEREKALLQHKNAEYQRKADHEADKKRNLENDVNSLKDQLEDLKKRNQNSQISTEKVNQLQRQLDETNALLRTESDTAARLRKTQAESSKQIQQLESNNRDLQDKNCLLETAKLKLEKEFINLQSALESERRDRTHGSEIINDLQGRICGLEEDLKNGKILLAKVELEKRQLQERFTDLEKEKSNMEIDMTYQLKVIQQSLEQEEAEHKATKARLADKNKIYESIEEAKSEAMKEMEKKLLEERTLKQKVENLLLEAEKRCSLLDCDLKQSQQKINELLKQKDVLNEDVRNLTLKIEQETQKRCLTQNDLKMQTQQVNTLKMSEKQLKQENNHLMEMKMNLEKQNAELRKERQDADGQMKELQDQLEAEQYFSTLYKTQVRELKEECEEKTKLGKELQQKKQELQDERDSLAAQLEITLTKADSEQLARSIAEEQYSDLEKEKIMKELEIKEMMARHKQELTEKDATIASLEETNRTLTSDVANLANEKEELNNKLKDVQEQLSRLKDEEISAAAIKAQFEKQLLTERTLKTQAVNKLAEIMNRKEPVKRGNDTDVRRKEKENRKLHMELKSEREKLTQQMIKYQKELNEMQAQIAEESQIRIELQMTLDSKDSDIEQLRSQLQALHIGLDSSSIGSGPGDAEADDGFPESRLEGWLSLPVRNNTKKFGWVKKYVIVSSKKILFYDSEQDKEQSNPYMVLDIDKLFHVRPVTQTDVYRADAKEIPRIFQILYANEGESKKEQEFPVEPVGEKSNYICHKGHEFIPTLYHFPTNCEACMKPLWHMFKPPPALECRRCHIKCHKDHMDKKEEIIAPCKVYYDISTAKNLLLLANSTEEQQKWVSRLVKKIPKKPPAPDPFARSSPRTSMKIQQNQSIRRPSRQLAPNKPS

`CCc1ccccc1C(=O)Nc1n[nH]c2c(C)c(F)c(C3C(C#N)=C(C)N(C)C(C)=C3C#N)cc12` [BAY-3827, N-[5-(3,5-dicyano-1,2,6-trimethyl-4H-pyridin-4-yl)-6-fluoro-7-methyl-1H-indazol-3-yl]-2-ethylbenzamide]: the remaining activity at 0.1 µM at ERK2 was 116%; at IKKb, 105%; at CHK1 it was 66%; at p38b MAPK, 55%; on BRSK2, 82%; on EPH-A2, 114%. In addition, the remaining activity at 0.1 µM at GCK amounted to 105%; on PIM2, 112%; on OSR1, 111%; at TTK, 74%; at PLK1, 97%; at STK33, 94%. The remaining activity at 0.1 µM at DDR2 was determined as 80%; at JNK1, 94%; at PKBa, 95%; at YES1 it was 98%; at ROCK 2, 83%; at ZAP70 it was 96%. The remaining activity at 0.1 µM on EPH-B4 was 109%; on EPH-B3, 84%; on CAMKKb, 97%. Besides, the remaining activity at 1 µM is not below 99% on IKKb (1 μM, IKKβ, cross-referenced with screen data of ref 37, read-out: activity remaining after treatment); not above 50% at BRSK2 (setting [1]); not below 99% on PIM2 (setting [1]).
As for `CC1=C(C#N)C(c2ccc3c(c2)c(NC(=O)c2ccccc2C)nn3C)C(C#N)=C(C)N1` [BAY-974, N-[5-(3,5-dicyano-2,6-dimethyl-1,4-dihydropyridin-4-yl)-1-methylindazol-3-yl]-2-methylbenzamide], the remaining activity at 0.1 µM amounted to 110% on ERK2; 89% on IKKb; 78% at CHK1; 81% at p38b MAPK; 112% at BRSK2; 109% on EPH-A2. The remaining activity at 0.1 µM at GCK worked out at 65%; at PIM2 it was 113%; on OSR1 it was 109%; at TTK it was 79%; at PLK1, 105%; at STK33 it was 82%. Besides, the remaining activity at 0.1 µM is 89% on DDR2; 106% at JNK1; 95% at PKBa; not above 50% at YES1; 98% at ROCK 2; 94% on ZAP70. The values for the remaining activity at 0.1 µM on EPH-B4, on EPH-B3 and on CAMKKb were 116%, 119% and 107%, respectively. The compound also yielded an inhibition at 0.1 µM against YES1 of 55 to 90%.
